Test results published in patent US20230081426A1, “COMPOUNDS AND METHODS FOR KRAS MODULATION AND INDICATIONS THEREFOR” (Plexxikon Inc., priority 2020, published 2023).

Columns and labels:
[1] = molecular target: T1, G12C-mutant human KRAS (amino acid residues 1-188) (Homo sapiens, UniProt P01116, G12C); assay: KRAS Binding Disruption Assay (AlphaScreen; biotinylated KRpep-2d analogue or RAF1-RBD), G12C; details: geometric mean, read-out: KRAS GMean IC50 (uM) MUTATION: G12C
T1 construct: G12D or G12C-mutant human KRAS (amino acid residues 1-188) with FLAG tag; made in house; host or cells: E. coli
T1 sequence (P01116 1-188 isoform P01116-2 G12C): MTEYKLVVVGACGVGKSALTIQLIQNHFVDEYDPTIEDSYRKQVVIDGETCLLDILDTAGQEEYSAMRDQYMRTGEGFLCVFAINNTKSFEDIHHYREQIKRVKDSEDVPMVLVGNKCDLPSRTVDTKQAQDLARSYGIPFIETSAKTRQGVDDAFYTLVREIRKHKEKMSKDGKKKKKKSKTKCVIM
Method in brief: (§1)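 Compounds are titrated against 5-20 nM mutant KRAS and 5-20 nM of either a biotinylated KRpep-2d analogue or RAF1-RBD, incubated 1 h at 25° C. Disruption is detected as reduced Alpha signal after 1 h with donor and acceptor beads at 10 μg/mL.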

[2] = molecular target: T2, G12D-mutant human KRAS (amino acid residues 1-188) (Homo sapiens, UniProt P01116, G12D); assay: KRAS Binding Disruption Assay (AlphaScreen; biotinylated KRpep-2d analogue or RAF1-RBD), G12D; details: KRAS G12D; geometric mean; read-out: KRAS GMean IC50 (uM) MUTATION: G12D
T2 construct: G12D or G12C-mutant human KRAS (amino acid residues 1-188) with FLAG tag; made in house; host or cells: E. coli
T2 sequence (P01116 1-188 isoform P01116-2 G12D): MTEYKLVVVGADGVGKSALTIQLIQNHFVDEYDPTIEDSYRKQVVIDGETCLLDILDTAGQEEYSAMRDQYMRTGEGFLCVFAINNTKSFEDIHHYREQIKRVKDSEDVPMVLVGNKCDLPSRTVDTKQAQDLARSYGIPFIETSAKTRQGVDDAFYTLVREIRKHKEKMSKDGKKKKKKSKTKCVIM
Method in brief: as §1

Row | SMILES | IC50 [1] | IC50 [2]
1 | CNC(=O)COc1nc(N2C[C@H]3CC[C@@H](C2)N3)c2ccc(-c3cc(O)cc4ccccc34)c(F)c2n1 [P-0733, 2-((4-((1R,5S)-3,8-diazabicyclo[3.2.1]octan-3-yl)-8-fluoro-7-(3-hydroxynaphthalen-1-yl)quinazolin-2-yl)oxy)-N-methylacetamide] | 10 to 100 µM | 0.0001 to 10 µM
2 | Oc1cc(-c2ccc3c(N4C[C@H]5CC[C@@H](C4)N5)nc(OCCn4ccnc4)nc3c2F)c2ccccc2c1 [P-0803, 4-(2-(2-(1H-imidazol-1-yl)ethoxy)-4-((1R,5S)-3,8-diazabicyclo[3.2.1]octan-3-yl)-8-fluoroquinazolin-7-yl)naphthalen-2-ol] | 0.0001 to 10 µM | 0.0001 to 10 µM
3 | Oc1cc(-c2ccc3c(N4C[C@H]5CC[C@@H](C4)N5)nc(OCCN4CCCC4)nc3c2F)c2ccccc2c1 [P-0696, 4-(4-((1R,5S)-3,8-diazabicyclo[3.2.1]octan-3-yl)-8-fluoro-2-(2-(pyrrolidin-1-yl)ethoxy)quinazolin-7-yl)naphthalen-2-ol] | 10 to 100 µM | 0.0001 to 10 µM
4 | Oc1cc(-c2ccc3c(N4C[C@H]5CC[C@@H](C4)N5)nc(N4C[C@@H](O)[C@H](O)C4)nc3c2F)c2ccccc2c1 [P-0685, (3R,4R)-1-(4-((1R,5S)-3,8-diazabicyclo[3.2.1]octan-3-yl)-8-fluoro-7-(3-hydroxynaphthalen-1-yl)quinazolin-2-yl)pyrrolidine-3,4-diol] | 10 to 100 µM | 0.0001 to 10 µM
5 | Fc1cc(F)c2c(-c3c(F)cc4c(N5C[C@H]6CC[C@@H](C5)N6)nc(OCC56CCCN5CCC6)nc4c3F)c[nH]c2c1 [P-0806, 4-((1R,5S)-3,8-diazabicyclo[3.2.1]octan-3-yl)-7-(4,6-difluoro-1H-indol-3-yl)-6,8-difluoro-2-((tetrahydro-1H-pyrrolizin-7a(5H)-yl)methoxy)quinazoline] | 0.0001 to 10 µM | 0.0001 to 10 µM
6 | Oc1cc(-c2ccc3c(N4C[C@H]5CC[C@@H](C4)N5)nc(N4CC(O)(C(F)(F)F)C4)nc3c2F)c2ccccc2c1 [P-0706, 1-(4-((1R,5S)-3,8-diazabicyclo[3.2.1]octan-3-yl)-8-fluoro-7-(3-hydroxynaphthalen-1-yl)quinazolin-2-yl)-3-(trifluoromethyl)azetidin-3-ol] | 100 to 1000 µM | 0.0001 to 10 µM
7 | Clc1cccc2[nH]cc(-c3ccc4c(N5C[C@H]6CC[C@@H](C5)N6)nc(OCC56CCCN5CCC6)nc4c3)c12 [P-0700, 4-((1R,5S)-3,8-diazabicyclo[3.2.1]octan-3-yl)-7-(4-chloro-1H-indol-3-yl)-2-((tetrahydro-1H-pyrrolizin-7a(5H)-yl)methoxy)quinazoline] | 10 to 100 µM | 0.0001 to 10 µM
8 | CN1CCC[C@H]1COc1nc(N2C[C@H]3CC[C@@H](C2)O3)c2ccc(-c3cc(O)cc4ccccc34)c(F)c2n1 [P-0114, 4-(4-((1R,5S)-8-oxa-3-azabicyclo[3.2.1]octan-3-yl)-8-fluoro-2-(((S)-1-methylpyrrolidin-2-yl)methoxy)quinazolin-7-yl)naphthalen-2-ol] | 0.0001 to 10 µM | 0.0001 to 10 µM
9 | Cc1cccc2c(-c3c(F)cc4c(N5C[C@H]6CC[C@@H](C5)N6)nc(OC[C@@H]5CCCN5C)nc4c3F)c[nH]c12 [P-0795, 4-((1R,5S)-3,8-diazabicyclo[3.2.1]octan-3-yl)-6,8-difluoro-7-(7-methyl-1H-indol-3-yl)-2-(((S)-1-methylpyrrolidin-2-yl)methoxy)quinazoline] | 10 to 100 µM | 10 to 100 µM
10 | Fc1ccc2[nH]cc(-c3c(Cl)cc4c(N5C[C@H]6CC[C@@H](C5)N6)nc(OCC56CCCN5CCC6)nc4c3F)c2c1F [P-0765, 4-((1R,5S)-3,8-diazabicyclo[3.2.1]octan-3-yl)-6-chloro-7-(4,5-difluoro-1H-indol-3-yl)-8-fluoro-2-((tetrahydro-1H-pyrrolizin-7a(5H)-yl)methoxy)quinazoline] | 0.0001 to 10 µM | 0.0001 to 10 µM
11 | CC(C)(CO)COc1nc(N2C[C@H]3CC[C@@H](C2)N3)c2ccc(-c3cc(O)cc4ccccc34)c(F)c2n1 [P-0719, 4-(4-((1R,5S)-3,8-diazabicyclo[3.2.1]octan-3-yl)-8-fluoro-2-(3-hydroxy-2,2-dimethylpropoxy)quinazolin-7-yl)naphthalen-2-ol] | 0.0001 to 10 µM | 0.0001 to 10 µM
12 | Fc1c(-c2c[nH]c3cccc(C(F)(F)F)c23)ccc2c(N3C[C@H]4CC[C@@H](C3)N4)nc(OCC34CCCN3CCC4)nc12 [P-0723, 4-((1R,5S)-3,8-diazabicyclo[3.2.1]octan-3-yl)-8-fluoro-2-((tetrahydro-1H-pyrrolizin-7a(5H)-yl)methoxy)-7-(4-(trifluoromethyl)-1H-indol-3-yl)quinazoline] | 0.0001 to 10 µM | 0.0001 to 10 µM
13 | CCN1CCC[C@H]1COc1nc(N2C[C@H]3CC[C@@H](C2)N3)c2ccc(-c3cc(O)cc4ccccc34)c(F)c2n1 [P-0667, 4-(4-((1R,5S)-3,8-diazabicyclo[3.2.1]octan-3-yl)-2-(((S)-1-ethylpyrrolidin-2-yl)methoxy)-8-fluoroquinazolin-7-yl)naphthalen-2-ol] | 0.0001 to 10 µM | 0.0001 to 10 µM
14 | CN1CCN(c2nc(N3C[C@H]4CC[C@@H](C3)N4)c3ccc(-c4cc(O)cc5ccccc45)c(F)c3n2)CC1 [P-0684, 4-(4-((1R,5S)-3,8-diazabicyclo[3.2.1]octan-3-yl)-8-fluoro-2-(4-methylpiperazin-1-yl)quinazolin-7-yl)naphthalen-2-ol] | 100 to 1000 µM | 0.0001 to 10 µM
15 | Oc1cc(-c2ccc3c(N4C[C@H]5CC[C@@H](C4)N5)nc(OCC4CCC(F)(F)CC4)nc3c2F)c2ccccc2c1 [P-0752, 4-(4-((1R,5S)-3,8-diazabicyclo[3.2.1]octan-3-yl)-2-((4,4-difluorocyclohexyl)methoxy)-8-fluoroquinazolin-7-yl)naphthalen-2-ol] | 10 to 100 µM | 0.0001 to 10 µM
16 | CC(C)(COc1nc(N2C[C@H]3CC[C@@H](C2)N3)c2ccc(-c3cc(O)cc4ccccc34)c(F)c2n1)NS(C)(=O)=O [P-0718, N-(1-((4-((1R,5S)-3,8-diazabicyclo[3.2.1]octan-3-yl)-8-fluoro-7-(3-hydroxynaphthalen-1-yl)quinazolin-2-yl)oxy)-2-methylpropan-2-yl)methanesulfonamide] | 10 to 100 µM | 0.0001 to 10 µM

Second part, the compound after the results:

Row | IC50 [1] | IC50 [2] | SMILES
17 | 10 to 100 µM | 0.0001 to 10 µM | Fc1cc2c(N3C[C@H]4CC[C@@H](C3)N4)nc(OCC34CCCN3CCC4)nc2c(F)c1-c1c(Cl)cnc2[nH]ccc12 [P-0645, 4-((1R,5S)-3,8-diazabicyclo[3.2.1]octan-3-yl)-7-(5-chloro-1H-pyrrolo[2,3-b]pyridin-4-yl)-6,8-difluoro-2-((tetrahydro-1H-pyrrolizin-7a(5H)-yl)methoxy)quinazoline]
18 | 100 to 1000 µM | 10 to 100 µM | CN1CCC[C@H]1COc1nc(N2C[C@H]3CC[C@@H](C2)N3)c2cc(F)c(-c3c[nH]c4cc(C#N)ccc34)c(F)c2n1 [P-0798, 3-(4-((1R,5S)-3,8-diazabicyclo[3.2.1]octan-3-yl)-6,8-difluoro-2-(((S)-1-methylpyrrolidin-2-yl)methoxy)quinazolin-7-yl)-1H-indole-6-carbonitrile]
19 | 10 to 100 µM | 0.0001 to 10 µM | Fc1c(-c2c[nH]c3cccc(F)c23)c(Cl)cc2c(N3C[C@H]4CC[C@@H](C3)N4)nc(OCC34CCCN3CCC4)nc12 [P-0809, 4-((1R,5S)-3,8-diazabicyclo[3.2.1]octan-3-yl)-6-chloro-8-fluoro-7-(4-fluoro-1H-indol-3-yl)-2-((tetrahydro-1H-pyrrolizin-7a(5H)-yl)methoxy)quinazoline]
20 | 10 to 100 µM | 0.0001 to 10 µM | Oc1cc(-c2ccc3c(N4C[C@H]5CC[C@@H](C4)N5)nc(OCC4CCCCO4)nc3c2F)c2ccccc2c1 (stereo partly drawn) [P-0775, 4-(4-((1R,5S)-3,8-diazabicyclo[3.2.1]octan-3-yl)-8-fluoro-2-((tetrahydro-2H-pyran-2-yl)methoxy)quinazolin-7-yl)naphthalen-2-ol]
21 | 10 to 100 µM | 0.0001 to 10 µM | N#CC1CC(COc2nc(N3C[C@H]4CC[C@@H](C3)N4)c3ccc(-c4cc(O)cc5ccccc45)c(F)c3n2)C1 (stereo partly drawn) [P-0751, 3-(((4-((1R,5S)-3,8-diazabicyclo[3.2.1]octan-3-yl)-8-fluoro-7-(3-hydroxynaphthalen-1-yl)quinazolin-2-yl)oxy)methyl)cyclobutane-1-carbonitrile]
22 | 100 to 1000 µM | 0.0001 to 10 µM | Oc1cc(-c2ccc3c(N4C[C@H]5CC[C@@H](C4)N5)nc(N4CCC(O)C4)nc3c2F)c2ccccc2c1 (stereo partly drawn) [P-0791, 1-(4-((1R,5S)-3,8-diazabicyclo[3.2.1]octan-3-yl)-8-fluoro-7-(3-hydroxynaphthalen-1-yl)quinazolin-2-yl)pyrrolidin-3-ol]
23 | 0.0001 to 10 µM | 0.0001 to 10 µM | Fc1cc2c(N3C[C@H]4CC[C@@H](C3)N4)nc(OCC34CCCN3CCC4)nc2c(F)c1-c1c[nH]c2cccc(C3CC3)c12 [P-0730, 4-((1R,5S)-3,8-diazabicyclo[3.2.1]octan-3-yl)-7-(4-cyclopropyl-1H-indol-3-yl)-6,8-difluoro-2-((tetrahydro-1H-pyrrolizin-7a(5H)-yl)methoxy)quinazoline]
24 | 10 to 100 µM | 0.0001 to 10 µM | OC/C=C/c1nc(N2C[C@H]3CC[C@@H](C2)N3)c2ccc(-c3cc(O)cc4ccccc34)c(F)c2n1 [P-0812, 4-(4-((1R,5S)-3,8-diazabicyclo[3.2.1]octan-3-yl)-8-fluoro-2-((E)-3-hydroxyprop-1-en-1-yl)quinazolin-7-yl)naphthalen-2-ol]
25 | 100 to 1000 µM | 0.0001 to 10 µM | Cc1ccc2[nH]cc(-c3c(F)cc4c(N5C[C@H]6CC[C@@H](C5)N6)nc(OC[C@@H]5CCCN5C)nc4c3F)c2c1 [P-0758, 4-((1R,5S)-3,8-diazabicyclo[3.2.1]octan-3-yl)-6,8-difluoro-7-(5-methyl-1H-indol-3-yl)-2-(((S)-1-methylpyrrolidin-2-yl)methoxy)quinazoline]
